The values below are quoted from earlier work in patent US20020015745A1, “Process for enhancing immune response in canines using a dietary composition including garlic” (priority 2000, published 2002).

Each structure is given as a SMILES string.

The data set deals with human prostate carcinoma LNCaP cells. The following applies: in culture.

In the case of `C=CCSSC[C@H](N)C(=O)O` [S-allylmercaptocysteine], the “growth of human prostate carcinoma LNCaP cells” value is on record as “reduce the growth”.
